{"source": "patent US20090258030A1", "about": "“Materials and Methods for Improving Livestock Productivity” (priority 2006, published 2009)", "key": {"[1]": {"test": "Carcass composition/appearance of fattening pigs (Example 3)", "type": "in vivo, swine", "details": "150 g cysteamine hydrochloride per ton of feed", "description": "72 piglets were divided evenly into control group and Cysteamine group. The control group was treated with basal diet while the Cysteamine group was treated with basal diet added with 150 g cysteamine hydrochloride per ton of feed. Upon reaching the market weight of 85-90 kg, five animals from each treatment were slaughtered after fasting for one day. During slaughter, the animals were stunned with a stunning gun, bled, dehaired and eviscerated. The carcass was split […] and then chilled for 24 hours prior to fabrication. The slaughter and the chilled carcass weights were recorded. The chilled carcass weight expressed as percentage of the slaughter weight represents the dressed yield. The wholesale and retail cuts of each animals were weighed and recorded. The values were expressed as the percentage of the live weight and of the chilled carcass weight.\nThe area of the longissimus dorsi (LD) muscle was measured on the 12th rib of the right part of the carcasses. This was done by tracing the outline of the whole LD muscle on acetate paper and the area was measured with the use of a grading method.\nThere were no significant interaction effects."}, "[2]": {"test": "Daily weight gain and feed conversion rate of beef cattle (Example 5)", "type": "in vivo, beef cattle (Ximenta'er hybridizing beef cattle)", "description": "In the following example, the test animals were beef cattle (Ximenta'er hybridizing beef cattle). The experiment was performed at the Hebei Hengshui Geling Beef Cattle Raising Farm dur the period from Oct. 10 to Dec. 21, 2002. In total, 64 heads of around 350 kg Ximenta'er hybridizing beef cattle were selected and separated into 4 groups randomly according to the principle of equalizing age, weight, grace, fur/hair condition, etc. Each group had 16 heads of beef cattle. The Control Group, Test Group I, II & III were fed a composition comprising 0, 1.5, 3, 6 g/head/day of cysteamine HCl, respectively. As noted in Tables 8, 9, and 10 below, adding a cysteamine compound to the basal diet of beef cattle can increase daily weight gain."}, "[3]": {"test": "Efficacy of cysteamine hydrochloride on sow and their weaning piglets performance (Example 9)", "type": "in vivo, swine (crossbred Yolkshire and Lanrace sows)", "details": "for Total of pigs born: 10 sows from 84 days gestation; for Av. of milk yield, L/d: calculated from average daily gain of piglets × 4 × no of piglets in each litter; for Total number of piglets at weaning: weaned at 21 days", "description": "All sows used in the experiment were crossbred (Yolkshire and Lanrace) selected from the 3rd and the 4^Th (ratio 4:6) pregnancy. Thirty sows (84 days gestation) were equally allocated into three treatments and each treatment of sows were divided into 10 replications with each sow per replication.\nCysteamine Hydrochloride was included to sow feeds at 135 ppm or 190 ppm. The diets were fed in mash form, water was allowed ad libitum. Litter size, litter weights, number of piglets born alive and weaned were recorded. Morbidity, incidence of diarrhea and mortality rates were recorded. Piglet's uniformity was accounted as percentage units that fell into two times of standard deviation based on average weaning live weight. The piglets from each sow were weaned at 21 days of age. On day 109 of gestation, sows were moved to farrowing units and were weight after farrowing and also weighed again after lactation. Back fat losses were measured every weeks during lactation period by using Renco Lean-Meter (Ultrasound for Ultra-profits, Renco Corporation, Minnesota, 55401, USA). Sows were fed about 2 kg/day during 16-84 days, 3 kg/day until farrowing and fed ad libitum during lactation period.\nAll sows were housed in cages adjacent to the boar's area and serviced by artificial insemination twice at 18 hours interval with the checked quality semen of the same boar. After 1 week service, they were weighed and moved to individual gestation cages. Five days prior to the date of parturition, they were moved to the farrowing units for setting in and staying till piglets weaning. After piglets weaning each sow was moved again to the service area.\nAll sows and piglets were subject to the usual vaccination program, antiparasitic treatment, iron injection and tail docking for piglets. An individual treatment was done if a disease or injury was developed during the trial, under the authority of the veterinary in charge of the farm animal health."}, "[4]": {"details": "slaughter at market weight 85-90 kg"}, "[5]": {"details": "T2: 0.0135 (135 ppm in sow feed)"}, "[6]": {"details": "T3: 0.019 (190 ppm in sow feed)"}}, "note": "Structures can show the parent of a compound that is named as a salt. Marks after values point to notes of the source that are not given here.", "data": [{"compound": "NCCS", "note": "[Cysteamine Hydrochloride, cysteamine hydrochloride]", "values": [{"measurement": "backfat vs pigs fed diet without cysteamine hydrochloride", "setting": "[1]", "value": "significantly thinner"}, {"measurement": "dressing percentage, loin eye area, and lean:fat ratio vs pigs fed without cysteamine hydrochloride", "setting": "[1]", "value": "no significant differences"}, {"measurement": "loin cut and lean trimmings as a percent of the live-weight vs pigs fed without cysteamine hydrochloride", "setting": "[1]", "value": "significantly higher"}, {"measurement": "Dressing %", "setting": "[1]; [4]", "value": 69.012, "unit": "%"}, {"measurement": "Lean:Fat Ratio", "setting": "[1]; [4]", "value": 0.105}, {"measurement": "Loin Eye Area (sq.cm)", "setting": "[1]; [4]", "value": 4.850, "unit": "sq.cm"}, {"measurement": "Backfat Thickness (cm)", "setting": "[1]; slaughter at market weight 85-90 kg, P < 0.05 vs non-cysteamine HCl", "value": "1.91^a cm"}, {"measurement": "daily weight gain", "setting": "[2]; Test Group III: 6 g/head/day, p<0.05 vs Control, Test Group I & II", "value": 1.217, "unit": "kg"}, {"measurement": "Feed Conversion Rate (FCR): Concentrated feed", "setting": "[2]; Test I: 1.5 g/head/day", "value": 3.54}, {"measurement": "Feed Conversion Rate (FCR): Corn Silage", "setting": "[2]; Test I: 1.5 g/head/day", "value": 14.14}, {"measurement": "Feed Conversion Rate (FCR): Raw Grass", "setting": "[2]; Test I: 1.5 g/head/day", "value": 1.21}, {"measurement": "Final Wt.", "setting": "[2]; Test I: 1.5 g/head/day", "value": 423.8, "unit": "kg"}, {"measurement": "Feed Conversion Rate (FCR): Concentrated feed", "setting": "[2]; Test II: 3 g/head/day", "value": "3.70^a"}, {"measurement": "Feed Conversion Rate (FCR): Corn Silage", "setting": "[2]; Test II: 3 g/head/day", "value": "14.42^a"}, {"measurement": "Feed Conversion Rate (FCR): Raw Grass", "setting": "[2]; Test II: 3 g/head/day", "value": "1.27^a"}, {"measurement": "Final Wt.", "setting": "[2]; Test II: 3 g/head/day", "value": 420.5, "unit": "kg"}, {"measurement": "Feed Conversion Rate (FCR): Concentrated feed", "setting": "[2]; Test III: 6 g/head/day", "value": "3.09^b"}, {"measurement": "Feed Conversion Rate (FCR): Corn Silage", "setting": "[2]; Test III: 6 g/head/day", "value": "12.87^b"}, {"measurement": "Feed Conversion Rate (FCR): Raw Grass", "setting": "[2]; Test III: 6 g/head/day", "value": "1.06^a"}, {"measurement": "Final Wt.", "setting": "[2]; Test III: 6 g/head/day", "value": 432.7, "unit": "kg"}, {"measurement": "Av. birth weight of piglets, kg", "setting": "[3]; [5]", "value": "1.737^a kg"}, {"measurement": "Av. daily feed intake of sow during lactation, kg", "setting": "[3]; [5]", "value": "5.88^a kg"}, {"measurement": "Av. daily gain of piglets", "setting": "[3]; [5]", "value": 355, "unit": "g"}, {"measurement": "Av. feed intake per piglets", "setting": "[3]; [5]", "value": 179, "unit": "g"}, {"measurement": "Av. live weight of piglets at weaning", "setting": "[3]; [5]", "value": 7.45, "unit": "kg"}, {"measurement": "Av. number of piglets born alive per litter", "setting": "[3]; [5]", "value": 11.10}, {"measurement": "Av. of piglet born per litter", "setting": "[3]; [5]", "value": 11.60}, {"measurement": "Av. overall weight loss of sow during lactation, kg", "setting": "[3]; [5]", "value": "14.25^b kg"}, {"measurement": "Av. total birth weight of piglet per litter, kg", "setting": "[3]; [5]", "value": "19.10^a kg"}, {"measurement": "Back fat loss of sow during lactation, mm: Overall", "setting": "[3]; [5]", "value": "0.867^b mm"}, {"measurement": "Back fat loss of sow during lactation, mm: Week 1", "setting": "[3]; [5]", "value": "0.165^b mm"}, {"measurement": "Back fat loss of sow during lactation, mm: Week 2", "setting": "[3]; [5]", "value": "0.588^b mm"}, {"measurement": "Back fat loss of sow during lactation, mm: Week 3", "setting": "[3]; [5]", "value": "0.114^b mm"}, {"measurement": "Number of piglet weaning per litter", "setting": "[3]; [5]", "value": 10.20}, {"measurement": "Survival rate of piglets at weaning, %", "setting": "[3]; [5]", "value": 91.90, "unit": "%"}, {"measurement": "Total number of piglet born alive per litter", "setting": "[3]; [5]", "value": 111}, {"measurement": "Total weight of piglets at weaning per litter, kg", "setting": "[3]; [5]", "value": "76.02^ab kg"}, {"measurement": "Uniformity of live weight at weaning, %", "setting": "[3]; [5]", "value": "86.68^a %"}, {"measurement": "Total of pigs born", "setting": "[3]; [5]", "value": 116}, {"measurement": "Av. of milk yield, L/d", "setting": "[3]; [5]", "value": "14.48^ab L/d"}, {"measurement": "Total number of piglets at weaning", "setting": "[3]; [5]", "value": 102}, {"measurement": "Av. birth weight of piglets, kg", "setting": "[3]; [6]", "value": "1.782^a kg"}, {"measurement": "Av. daily feed intake of sow during lactation, kg", "setting": "[3]; [6]", "value": "6.07^a kg"}, {"measurement": "Av. daily gain of piglets", "setting": "[3]; [6]", "value": 366, "unit": "g"}, {"measurement": "Av. feed intake per piglets", "setting": "[3]; [6]", "value": 183, "unit": "g"}, {"measurement": "Av. live weight of piglets at weaning", "setting": "[3]; [6]", "value": 7.68, "unit": "kg"}, {"measurement": "Av. number of piglets born alive per litter", "setting": "[3]; [6]", "value": 10.70}, {"measurement": "Av. of piglet born per litter", "setting": "[3]; [6]", "value": 11.50}, {"measurement": "Av. overall weight loss of sow during lactation, kg", "setting": "[3]; [6]", "value": "13.58^b kg"}, {"measurement": "Av. total birth weight of piglet per litter, kg", "setting": "[3]; [6]", "value": "18.88^a kg"}, {"measurement": "Back fat loss of sow during lactation, mm: Overall", "setting": "[3]; [6]", "value": "0.829^b mm"}, {"measurement": "Back fat loss of sow during lactation, mm: Week 1", "setting": "[3]; [6]", "value": "0.171^b mm"}, {"measurement": "Back fat loss of sow during lactation, mm: Week 2", "setting": "[3]; [6]", "value": "0.548^b mm"}, {"measurement": "Back fat loss of sow during lactation, mm: Week 3", "setting": "[3]; [6]", "value": "0.110^b mm"}, {"measurement": "Number of piglet weaning per litter", "setting": "[3]; [6]", "value": 10.40}, {"measurement": "Survival rate of piglets at weaning, %", "setting": "[3]; [6]", "value": 97.20, "unit": "%"}, {"measurement": "Total number of piglet born alive per litter", "setting": "[3]; [6]", "value": 107}, {"measurement": "Total weight of piglets at weaning per litter, kg", "setting": "[3]; [6]", "value": "79.42^a kg"}, {"measurement": "Uniformity of live weight at weaning, %", "setting": "[3]; [6]", "value": "86.95^a %"}, {"measurement": "Total of pigs born", "setting": "[3]; [6]", "value": 115}, {"measurement": "Av. of milk yield, L/d", "setting": "[3]; [6]", "value": "15.13^a L/d"}, {"measurement": "Total number of piglets at weaning", "setting": "[3]; [6]", "value": 104}]}]}
